Reference: patent publication US12257243B2, “5-hydroxy-7-oxabicyclo[2.2.1]heptane-2-carboxamide derivatives for inducing chondrogenesis for treating joint damage” (NOVARTIS AG, priority 2018, dated 2025)
Like-named read-outs stand apart in the source and are kept apart here.

Test system: ALP in normal human articular chondrocytes (NHACs)
Test: Alkaline Phosphatase (ALP) activity assay (staining and quantitation) in NHACs, prevention of chondrocyte hypertrophy
Type: cell-based
Details: human IL-1 beta 10 ng/mL, 12 days; for IC50: Fast Blue RR staining, high content imaging, read-out: ALP in NHAC IC50; for Emax / ALP in NHAC (% Efficacy): value in parentheses; for Emax: read-out: ALP in NHAC (% Efficacy)
Outline: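 Hypertrophy readout: ALP staining (Fast Blue RR with naphthol AS-MX phosphate) plus Hoechst, imaged at 561 nm and/or quantified by high-content multiwavelength cell scoring. Before staining, NHACs (7,500/well, DMEM/10% FBS) were exposed to compound for 5 h, then cultured with 10 ng/mL IL-1β for 12 days at 37 °C.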

| Structure (SMILES) | IC50 (Chondrocyte, 288 h) [µM] | Emax (Chondrocyte, 288 h) [%] | IC50 [µM] | ALP in NHAC (% Efficacy) [%] |
| --- | --- | --- | --- | --- |
| CCOc1cc(C(F)(F)F)cc(NC(=O)[C@@H]2[C@@H](c3cn(C)nc3C(F)(F)F)[C@H]3O[C@@H]2C[C@@H]3O)n1 (racemic) [Example 39, rac-(1R,2R,3S,4R,5S)—N-(6-ethoxy-4-(trifluoromethyl)pyridin-2-yl)-5-hydroxy-3-(1-methyl-3-(trifluoromethyl)-1H-pyrazol-4-yl)-7-oxabicyclo[2.2.1]heptane-2-carboxamide] | 4 | 64 |  |  |
| O=C(Nc1ccc(C(F)(F)F)c(Cl)c1)[C@@H]1[C@@H](c2cccc(C(F)(F)F)c2)[C@H]2O[C@@H]1C[C@@H]2O (racemic) [Example 2, rac-(1R,2R,3S,4R,5S)—N-(3-chloro-4-(trifluoromethylphenyl)-5-hydroxy-3-(3-(trifluoromethyl)phenyl)-7-oxabicyclo[2.2.1]heptane-2-carboxamide] | 8.4 | 102 |  |  |
| Cn1cc([C@H]2[C@H]3O[C@H](C[C@@H]3O)[C@@H]2C(=O)Nc2ccc(N3CCOCC3)c(C(F)(F)F)c2)c(C(F)(F)F)n1 (racemic) [Example 37, rac-(1R,2R,3S,4R,5S)-5-hydroxy-3-(1-methyl-3-(trifluoromethyl)-1H-pyrazol-4-yl)-N-(4-morpholino-3-(trifluoromethyl)phenyl)-7-oxabicyclo[2.2.1]heptane-2-carboxamide] | > 30 | 45 |  |  |
| O=C(Nc1ccc(C(F)(F)F)cc1)[C@@H]1[C@@H](c2ccnc(C(F)(F)F)c2)[C@H]2O[C@@H]1C[C@@H]2O (racemic) [Example 66, rac-(1R,2R,3S,4R,5S)-5-hydroxy-N-(4-(trifluoromethyl)phenyl)-3-(2-(trifluoromethyl)pyridin-4-yl)-7-oxabicyclo[2.2.1]heptane-2-carboxamide] | 15 | 66 |  |  |
| Cc1cc(C(F)(F)F)cc(NC(=O)[C@@H]2[C@@H](c3cccc(C(F)(F)F)c3)[C@H]3O[C@@H]2C[C@@H]3O)n1 (racemic) [Example 8, rac-(1R,2R,3S,4R,5S)-5-hydroxy-N-(6-methyl-4-(trifluoromethyl)pyridin-2-yl)-3-(3-(trifluoromethyl)phenyl)-7-oxabicyclo[2.2.1]heptane-2-carboxamide] | 17 | 100 |  |  |
| Cn1cc([C@H]2[C@H]3O[C@H](C[C@@H]3O)[C@@H]2C(=O)Nc2cc(C(F)(F)F)ccn2)c(C(F)(F)F)n1 (racemic) [Example 38, rac-(1R,2R,3S,4R,5S)-5-hydroxy-3-(1-methyl-3-(trifluoromethyl)-1H-pyrazol-4-yl)-N-(4-(trifluoromethyl)pyridin-2-yl)-7-oxabicyclo[2.2.1]heptane-2-carboxamide] | 3.6 | 94 |  |  |
| Cn1cc([C@H]2[C@H]3O[C@H](C[C@@H]3O)[C@@H]2C(=O)Nc2cc(C(F)(F)F)c(Cl)cn2)c(C(F)(F)F)n1 (racemic) [Example 36, rac-(1R,2R,3S,4R,5S)—N-(5-chloro-4-(trifluoromethyl)pyridin-2-yl)-5-hydroxy-3-(1-methyl-3-(trifluoromethyl)-1H-pyrazol-4-yl)-7-oxabicyclo[2.2.1]heptane-2-carboxamide] | 3.6 | 92 |  |  |
| O=C(Nc1ccc(C(F)(F)F)cn1)[C@@H]1[C@@H](c2cccc(C(F)(F)F)c2)[C@H]2O[C@@H]1C[C@@H]2O (racemic) [Example 26, rac-(1R,2R,3S,4R,5S)-5-hydroxy-3-(3-(trifluoromethyl)phenyl)-N-(5-(trifluoromethyl)pyridin-2-yl-7-oxabicyclo[2.2.1]heptane-2-carboxamide] | 11 | 112 |  |  |
| COc1ccc(C(F)(F)F)cc1NC(=O)[C@H]1[C@H](c2cn(C)nc2C(F)(F)F)[C@@H]2O[C@H]1C[C@H]2O (single isomer, unassigned) [Example 33a, (1R,2R,3S,4R,5S)-5-hydroxy-N-(2-methoxy-5-trifluoromethyl)phenyl)-3-(1-methyl-3-(trifluoromethyl)-1H-pyrazol-4-L)-7-oxabicyclo[2.2.1]heptane-2-carboxamide or (1S,2S,3R,4S,5R)-5-hydroxy-N-(2-methoxy-5-(trifluoromethyl)phenyl)-3-(1-methyl-3-(trifluoromethyl)-1H-pyrazol-4-L)-7-oxabicyclo[2.2.1]heptane-2-carboxamide] |  |  | 6.6 | 79 |
| Cc1c(NC(=O)[C@@H]2[C@@H](c3cccc(C(F)(F)F)c3)[C@H]3O[C@@H]2C[C@@H]3O)cccc1C(F)(F)F (racemic) [Example 11, rac-(1R,2R,3S,4R,5S)-5-hydroxy-N-(2-methyl-3-(trifluoromethyl)phenyl)-3-(3-(trifluoromethyl)phenyl)-7-oxabicyclo[2.2.1]heptane-2-carboxamide] | > 30 | 33 |  |  |
| O=C(Nc1ccc(C(F)(F)F)c(Cl)n1)[C@@H]1[C@@H](c2cccc(C(F)(F)F)c2)[C@H]2O[C@@H]1C[C@@H]2O (racemic) [Example 25, rac-(1R,2R,3S,4R,5S)—N-(6-chloro-5-(trifluoromethyl)pyridin-2-yl)-5-hydroxy-3-(3-(trifluoromethyl)phenyl)-7-oxabicyclo[2.2.1]heptane-2-carboxamide] | 2.9 | 112 |  |  |
| Cc1cc(NC(=O)[C@@H]2[C@@H](c3cc(C(F)(F)F)nn3C)[C@H]3O[C@@H]2C[C@@H]3O)cc(C(F)(F)F)c1 (racemic) [Example 71, rac-(1R,2R,3S,4R,5S)-5-hydroxy-3-(1-methyl-3-(trifluoromethyl)-1H-pyrazol-5-yl)-N-(3-methyl-5-(trifluoromethyl)phenyl)-7-oxabicyclo[2.2.1]heptane-2-carboxamide] | > 30 | 29 |  |  |
| O=C(Nc1ccc(C(F)(F)F)c(F)c1)[C@@H]1[C@@H](c2cccc(C(F)(F)F)c2)[C@H]2O[C@@H]1C[C@@H]2O (racemic) [Example 3, rac-(1R,2R,3S,4R,5S)—N-(3-fluoro-4-(trifluoromethyl)phenyl)-5-hydroxy-3-(3-(trifluoromethyl)phenyl)-7-oxabicyclo[2.2.1]heptane-2-carboxamide] | 12 | 77 |  |  |
| Cc1ccc(NC(=O)[C@@H]2[C@@H](c3cn(C(C)C)nc3C(F)(F)F)[C@H]3O[C@@H]2C[C@@H]3O)cc1C(F)(F)F (racemic) [Example 89, rac-(1R,2R,3S,4R,5S)-5-hydroxy-3-(1-isopropyl-3-trifluoromethyl)-1H-pyrazol-4-yl)-N-(4-methyl-3-(trifluoromethyl)phenyl)-7-oxabicyclo[2.2.1]heptane-2-carboxamide] | 19 | 40 |  |  |
| COc1ccc(C(F)(F)F)cc1NC(=O)[C@@H]1[C@@H](c2cccc(C(F)(F)F)c2)[C@H]2O[C@@H]1C[C@@H]2O (racemic) [Example 22, rac-(1R,2R,3S,4R,5S)-5-hydroxy-N-(2-methoxy-5-(trifluoromethyl)phenyl-3-(3-(trifluoromethyl)phenyl)-7-oxabicyclo[2.2.1]heptane-2-carboxamide] | 27 | 75 |  |  |
| N#Cc1ccc(C(F)(F)F)cc1NC(=O)[C@@H]1[C@@H](c2cccc(C(F)(F)F)c2)[C@H]2O[C@@H]1C[C@@H]2O (single isomer, unassigned) [Example 48b, (1R,2R,3S,4R,5S)—N-(2-cyano-5-(trifluoromethyl)phenyl)-5-hydroxy-3-(3-(trifluoromethyl)phenyl)-7-oxabicyclo[2.2.1]heptane-2-carboxamide or (1S,2S,3R,4S,5R)—N-(2-cyano-5-(trifluoromethyl)phenyl)-5-hydroxy-3-(3-(trifluoromethyl)phenyl)-7-oxabicyclo[2.2.1]heptane-2-carboxamide] |  |  | 1.9 | 98 |
| Cc1cc(NC(=O)[C@@H]2[C@@H](c3cn(C(C)C)nc3C(F)(F)F)[C@H]3O[C@@H]2C[C@@H]3O)cc(C(F)(F)F)c1 (racemic) [Example 88, rac-(1R,2R,3S,4R,5S)-5-hydroxy-3-(1-isopropyl-3-(trifluoromethyl)-1H-pyrazol-4-yl)-N-(3-methyl-5-(trifluoromethyl)phenyl)-7-oxabicyclo[2.2.1]heptane-2-carboxamide] | > 30 | 20 |  |  |
| Cn1cc([C@H]2[C@H]3O[C@H](C[C@@H]3O)[C@@H]2C(=O)Nc2ccc(Cl)c(C(F)(F)F)c2)c(C(F)(F)F)n1 (racemic) [Example 53, rac-(1R,2R,3S,4R,5S)—N-(4-chloro-3-(trifluoromethyl)phenyl)-5-hydroxy-3-(1-methyl-3-(trifluoromethyl)-1H-pyrazol-4-yl)-7-oxabicyclo[2.2.1]heptane-2-carboxamide] | 7.2 | 86 |  |  |
| Cn1nc(C(F)(F)F)cc1[C@H]1[C@H]2O[C@H](C[C@@H]2O)[C@@H]1C(=O)Nc1ccc(C(F)(F)F)cc1 (racemic) [Example 62, rac-(1R,2R,3S,4R,5S)-5-hydroxy-3-(1-methyl-3-(trifluoromethyl)-1H-pyrazol-5-yl)-N-(4-(trifluoromethyl)phenyl)-7-oxabicyclo[2.2.1]heptane-2-carboxamide] | 16 | 73 |  |  |
| Cc1c(NC(=O)[C@@H]2[C@@H](c3cn(C)nc3C(F)(F)F)[C@H]3O[C@@H]2C[C@@H]3O)cccc1C(F)(F)F (racemic) [Example 42, rac-(1R,2R,3S,4R,5S)-5-hydroxy-3-(1-methyl-3-(trifluoromethyl)-1H-pyrazol-4-yl)-N-(2-methyl-3-(trifluoromethyl)phenyl)-7-oxabicyclo[2.2.1]heptane-2-carboxamide] | > 30 | 21 |  |  |
| Cc1cc(NC(=O)[C@@H]2[C@@H](c3cn(C)nc3C(F)(F)F)[C@H]3O[C@@H]2C[C@@H]3O)cc(C(F)(F)F)c1 (racemic) [Example 30, rac-(1R,2R,3S,4R,5)-5-hydroxy-3-(1-methyl-3-(trifluoromethyl)-1H-pyrazol-4-yl)-N-(3-methyl-5-(trifluoromethyl)phenyl)-7-oxabicyclo[2.2.1]heptane-2-carboxamide] | 7.2 | 81 |  |  |
